# Patent publication US6416979B1, “5-substituted picolinic acid compounds production by Marasmiellus sp” (Pfizer Inc., priority 1997, dated 2002)
# Legend:
# TNF production = experiment: TNF Bioassay (LPS-stimulated human whole blood, TNF titer with L929 cells); format: cell-based; settings: heparinised human whole blood diluted four-fold, 10 μg/ml LPS, 37° C., 4 h; standard in vitro protocol
# Procedure: (§1) Heparinised human whole blood diluted four-fold with RPMI medium was incubated with 10 μg/ml of Lipopolysaccharide (LPS) in the presence of various concentrations of samples at 37° C. in a humidified atmosphere containing 5% CO2 for 4 h. The TNF titer in the supernatants was determined with L929 cells which were destroyed by TNF quantitatively. L929 cells (2.5×10^4 cells) in 90 μl of E-MEM medium containing 1% fetal calf serum and 0.5 μg/ml of actinomycin D were placed in wells of 96-well microplates (flat-bottom). Ten μl of the supernatants was added to each well and incubated at 37° C. in a humidified atmosphere containing 5% CO2. After 18 h, the plates were rinsed with 0.9% sterile saline and stained for 10 min with 0.4% crystal violet in MeOH. The plates were washed with distilled water and were dried by air. Fifty μl of methanol was added to each well to elute the crystal violet, and the plates were read on a microplate reader (model 3550, BIO-RAD) at 595 nm. TNF production inhibitory activity is calculated by the formula: [formula]
# IL-1 production = experiment: IL-1 Bioassay (supernatants of LPS-stimulated human whole blood, specific ELISA); format: cell-based; settings: heparinised human whole blood diluted four-fold, 10 μg/ml LPS, 37° C., 4 h, standard in vitro protocol
# Procedure: as §1
# The supernatants prepared by the same method as TNF bioassay were analyzed IL-1 titer by commercially available specific ELISA system. The plates were read on a microplate reader (model 3550, BIO-RAD) at 490 nm. IL-1 production inhibitory activity is calculated by the formula: [formula]
SMILES,TNF biosynthesis inhibitory activities (TNF production),IL-1 biosynthesis inhibitory activities (IL-1 production)
"COC(=O)c1ccc(C(OC(C)=O)C(C)OC(C)=O)cn1 (centres unmarked) [methyl 5-(1,2-diacetoxypropyl)-2-pyridinecarboxylate]",found to have the IL-1 and TNF biosynthesis inhibitory activities,found to have the IL-1 and TNF biosynthesis inhibitory activities
COC(=O)c1ccc(C(OC(C)=O)C(C)O)cn1 (centres unmarked) [methyl 5-(1-acetoxy-2-hydroxypropyl)-2-pyridinecarboxylate],found to have the IL-1 and TNF biosynthesis inhibitory activities,found to have the IL-1 and TNF biosynthesis inhibitory activities
"CC(O)C(O)c1ccc(-c2nnnn2C)nc1 (centres unmarked) [5-(1,2-di-hydroxypropyl)-2-(1-methyl-1H-1,2,3,4-tetrazol-5-yl)pyridine]",found to have the IL-1 and TNF biosynthesis inhibitory activities,found to have the IL-1 and TNF biosynthesis inhibitory activities
"CC(O)C(O)c1ccc(-c2nnn(C)n2)nc1 (centres unmarked) [5-(1,2-di-hydroxypropyl)-2-(2-methyl-2H-1,2,3,4-tetrazol-5-yl)pyridine]",found to have the IL-1 and TNF biosynthesis inhibitory activities,found to have the IL-1 and TNF biosynthesis inhibitory activities
"CC(O)C(O)c1ccc(C(N)=O)nc1 (centres unmarked) [5-(1,2-dihydroxypropyl)-2-pyridinecarboxamide]",found to have the IL-1 and TNF biosynthesis inhibitory activities,found to have the IL-1 and TNF biosynthesis inhibitory activities
"CC(O)C(O)c1ccc(C#N)nc1 (centres unmarked) [5-(1,2-dihydroxypropyl)-2-pyridinecarbonitrile]",found to have the IL-1 and TNF biosynthesis inhibitory activities,found to have the IL-1 and TNF biosynthesis inhibitory activities
"COC(=O)c1ccc(C(OC(=O)c2ccc(Br)cc2)C(C)OC(=O)c2ccc(Br)cc2)cn1 (centres unmarked) [methyl 5-(1,2-di-p-bromobenzoyloxypropyl)-2-pyridinecarboxylate]",found to have the IL-1 and TNF biosynthesis inhibitory activities,found to have the IL-1 and TNF biosynthesis inhibitory activities
"CC(O)C(O)c1ccc(C(=O)N(C)C)nc1 (centres unmarked) [5-(1,2-dihydroxypropyl)-N,N-di-methyl-2-pyridinecarboxamide]",found to have the IL-1 and TNF biosynthesis inhibitory activities,found to have the IL-1 and TNF biosynthesis inhibitory activities
"COC(=O)c1ccc(C(O)C(C)O)cn1 (centres unmarked) [methyl 5-(1,2-dihydroxypropyl)-2-pyridinecarboxylate]",found to have the IL-1 and TNF biosynthesis inhibitory activities,found to have the IL-1 and TNF biosynthesis inhibitory activities
"CC(O)C(O)c1ccc(C(=O)O)nc1 (centres unmarked) [5-(1,2-dihydroxypropyl)-2-pyridinecarboxylic acid]",found to have the IL-1 and TNF biosynthesis inhibitory activities,found to have the IL-1 and TNF biosynthesis inhibitory activities
